Results as given in US20060287257A1, “Pharmaceutical compositions to treat diseases caused by mycobacterium” (priority 2005, published 2006).

test system: Mycobacterium tuberculosis strain H37Rv; test: Screen against Mycobacterium tuberculosis strain H37Rv by serial dilution; format: cell-based; conditions: M. tuberculosis H37Rv
Source text: All of the compounds were screened against Mycobacterium tuberculosis strain H37Rv by serial dilution. The minimum inhibitory concentration and degree of inhibition is presented.

Row | Molecule | % Inhibition (degree of inhibition) | MIC (minimum inhibitory concentration)
1 | N=C(NCCCCCCNC(=N)NC(=N)Nc1ccc(Cl)cc1)NC(=N)Nc1ccc(Cl)cc1.Sc1nc2ccccc2s1.Sc1nc2ccccc2s1 [Compound 5, chlorhexidine di-2-mercaptobenzthiazole] | 90% | 1.56 µg/mL
2 | CCCCCCCCCCCC(=O)O.NC(=NCCCCCCN=C(N)N=C(N)Nc1ccc(Cl)cc1)N=C(N)Nc1ccc(Cl)cc1 [Compound 6, chlorhexidine dilaurate] | 99% | 3.13 µg/mL
3 | N=C(NCCCCCCNC(=N)NC(N)=Nc1ccc(Cl)cc1)NC(N)=Nc1ccc(Cl)cc1.NCCCC(O)(P(=O)(O)O)P(=O)(O)O.NCCCC(O)(P(=O)(O)O)P(=O)(O)O [Compound 7, chlorhexidine di [4-amino-1-hydroxybutylidene] bis-phosphonate] | 94% | 3.13 µg/mL
4 | N=C(NCCCCCCNC(=N)NC(=N)Nc1ccc(Cl)cc1)NC(=N)Nc1ccc(Cl)cc1.Oc1ccccc1-c1ccccc1.Oc1ccccc1-c1ccccc1 [Compound 9, chlorhexidine di-ortho phenyl phenol] | 99% | 3.13 µg/mL
5 | CCCCCCCCCCCCCCCCCC(=O)O.CCCCCCCCCCCCCCCCCC(=O)O.N=C(NCCCCCCNC(=N)NC(=N)Nc1ccc(Cl)cc1)NC(=N)Nc1ccc(Cl)cc1 [Compound 11, chlorhexidine distearate] | 99% | 3.13 µg/mL
6 | Isoniazide dodecyl benzene sulfonate [Compound 2] | 99% | 0.78 µg/mL
7 | N-cocoylamide-L-argimine ethyl ester triclosanate [Compound 3] | 94% | 1.56 µg/mL
8 | chlorhexidine beta cyclodextrin sulfobutyl ether [Compound 8] | 94% | 3.13 µg/mL
9 | chlorhexidine dithymol [Compound 4] | 98% | 1.56 µg/mL
